Laboratory results as given in patent US4301177A, “(3-Methyl-2-butenyl)propanedioic acid mono (1,2-diphenylhydrazide) and salts thereof” (Istituto de Angeli S.p.A., priority 1979, dated 1981).
Counter-ions that a name gives are not always drawn.

Legend:
rats [1] = test: Effect on arthritis induced in rats by Freund's adjuvant (Table II); assay type: in vivo, male Sprague-Dawley rats; conditions: day 20
rats [2] = test: Ulcerogenic effect, gastric lesions in rats (Table VIII); assay type: in vivo, male Sprague-Dawley rats; conditions: for Body weight, mean ± standard deviation / % animals with gastric lesions / Ulcerogenic Index: single dose; for % animals with gastric lesions / Ulcerogenic Index: 16 h
Method: (§1) In the present study the test compounds were administered perorally by means of a stomach tube as an aqueous suspension in 5% acacia gum at a constant volume of 10 ml/kg to male Swiss mice and male Sprague-Dawley rats. Control rats and mice were given a corresponding volume of the aqueous suspension medium. The results were statistically evaluated by Dunnett's test (C. V. Dunnett.: J.A. Stat. Ass., 40, 1096, 1955).
The ulcerogenic effect was determined in rats by the method of Niemegeers et al. (Arzneimittel-Forschung 25, 1537, 1975). A single oral dose was administered to groups of 15 rats fasted for 9 hours before treatment and kept fasting throughout the whole experimental period. The animals were sacrificed 16 hours after treatment; the severity of lesions was scored according to an arbitrary scale ranging from + to ++++. For each group of rats, an ulcerogenic index was calculated according to Pauls et al., (Gastroenterology 8, 774, 1947).

rats [3] = test: Analgesic-anti-inflammatory activity, Randall and Selitto, brewer's yeast inflamed paw in rats (Table IV); assay type: in vivo, male Sprague-Dawley rats; conditions: for Analgesic Index: ratio to controls (1.0)
Method: as §1
4. Analgesic-anti-inflammatory activity
The analgesic-anti-inflammatory activity was evaluated in rats by the method of Randall and Selitto (Arch. Int. Pharmacodyn., 111, 409, 1957), using an analgesimeter to measure the minimum load that must be applied to a rat's hind paw to elicit a painful stimulus.
Both the controls and the experimental rats were injected into the right hind paw with 0.1 ml of 20% brewer's yeast in sterile saline immediately before the administration of the test compound.
The volume of the inflamed right hind paw was measured 1, 2 and 4 hours after the administration of the test compound.
The analgesic-anti-inflammatory activity was evaluated using an "analgesic index" expressed as a ratio between the sum of the average weights (grams) necessary to provoke a painful stimulus at different times in treated and control animals.

rats [4] = test: Antipyretic activity, fever induced by brewer's yeast in rats (Table V); assay type: in vivo, male Sprague-Dawley rats
Method: as §1
The antipyretic activity was investigated in rats by the method of Niemegeers et al. (see Arzneim.Forsch. 25, 1519, 1975). The rectal temperature was measured immediately before and 4 hours after the subcutaneous injection of 1 ml/100 g body weight of a 15% brewer's yeast suspension in 1% acacia gum.
The test compound was administered orally to groups of 5 different rats per dose 4 hours after the yeast injection. The rectal temperature was measured 0.5, 1, 1.5, 2, 2.5, 3 and 19 hours after treatment.
(§2) Average values of the temperatures obtained in the treated rats were compared with those of control rats.

rats [5] = test: Effect on normal temperature of rats (Table VI); assay type: in vivo, male Sprague-Dawley rats
Method: as §1
6. Effect on normal temperature of rats
The rectal temperature was measured at 30-minute intervals before and after administration of the test compound, that is, at -1.5, -1, -0.5, 0.5, 1, 1.5 and 2 hours, using groups of 10 rats each for each dosage level.
as §2

mice = test: Analgesic activity, hot plate test in mice (Table III); assay type: in vivo, male Swiss mice
Method: as §1
The analgesic activity was evaluated in mice by the hot plate test according to Janssen and Jageneau (J.Pharm.Pharmac., 9, 381, 1957).
The plate temperature was kept constant at 55° C.; the reaction time was determined before and 30, 60, 90 and 120 minutes after oral administration of the test compound. Average values after administration of the test compound were compared to those obtained before treatment.

SMILES: CC(C)=CCC(C(=O)O)C(=O)N(Nc1ccccc1)c1ccccc1 (stereo not drawn) [A, Calcium salt of (3-methyl-2-butenyl)propanedioic acid mono(1,2-diphenylhydrazide)]
- % Inhibition (rats [1]; 40 mg/kg oral): 34%
- % Inhibition (rats [1]; 80 mg/kg oral): 35%
- % Inhibition (rats [1]; 160 mg/kg oral): 45%
- Body weight, mean ± standard deviation (rats [2]; 40 mg/kg oral): 206.67 ± 9.00 grams
- % animals with gastric lesions (rats [2]; 40 mg/kg oral): 0%
- Ulcerogenic Index (rats [2]; 40 mg/kg oral): 0
- Body weight, mean ± standard deviation (rats [2]; 80 mg/kg oral): 205.33 ± 6.40 grams
- % animals with gastric lesions (rats [2]; 80 mg/kg oral): 0%
- Ulcerogenic Index (rats [2]; 80 mg/kg oral): 0
- Body weight, mean ± standard deviation (rats [2]; 160 mg/kg oral): 212.67 ± 12.23 grams
- % animals with gastric lesions (rats [2]; 160 mg/kg oral): 0%
- Ulcerogenic Index (rats [2]; 160 mg/kg oral): 0
- Body weight, mean ± standard deviation (rats [2]; 320 mg/kg oral): 218.67 ± 6.40 grams
- % animals with gastric lesions (rats [2]; 320 mg/kg oral): 46.66%
- Ulcerogenic Index (rats [2]; 320 mg/kg oral): 71.38
- ulcerogenic effect compared with prior art compound (rats [2]; summary, Table VIII): less ulcerogenic
- Mean of the weights eliciting painful stimulus (rats [3]; 40 mg/kg oral, 1 h): 196.2 grams
- Mean of the weights eliciting painful stimulus (rats [3]; 40 mg/kg oral, 2 h): 128.8 grams
- Mean of the weights eliciting painful stimulus (rats [3]; 40 mg/kg oral, 4 h): 95.0 grams
- Analgesic Index (rats [3]; 40 mg/kg oral): 1.49
- Mean of the weights eliciting painful stimulus (rats [3]; 80 mg/kg oral, 1 h): 192.6 grams
- Mean of the weights eliciting painful stimulus (rats [3]; 80 mg/kg oral, 2 h): 147.6 grams
- Mean of the weights eliciting painful stimulus (rats [3]; 80 mg/kg oral, 4 h): 146.2 grams
- Analgesic Index (rats [3]; 80 mg/kg oral): 1.72
- Mean of the weights eliciting painful stimulus (rats [3]; 160 mg/kg oral, 1 h): 245.0 grams
- Mean of the weights eliciting painful stimulus (rats [3]; 160 mg/kg oral, 2 h): 171.2 grams
- Mean of the weights eliciting painful stimulus (rats [3]; 160 mg/kg oral, 4 h): 143.8 grams
- Analgesic Index (rats [3]; 160 mg/kg oral): 1.98
- Rectal temperature (rats [4]; 40 mg/kg oral, 0 h (4 h after yeast, before treatment)): 38.00 °C
- Rectal temperature (rats [4]; 40 mg/kg oral, 0.5 h): 37.51 °C
- Rectal temperature (rats [4]; 40 mg/kg oral, 1 h): 38.41 °C
- Rectal temperature (rats [4]; 40 mg/kg oral, 1.5 h): 38.24 °C
- Rectal temperature (rats [4]; 40 mg/kg oral, 2 h): 38.23 °C
- Rectal temperature (rats [4]; 40 mg/kg oral, 2.5 h): 38.28 °C
- Rectal temperature (rats [4]; 40 mg/kg oral, 3 h): 38.10 °C
- Rectal temperature (rats [4]; 40 mg/kg oral, 19 h): 37.51 °C
- Rectal temperature (rats [4]; 40 mg/kg oral, -4 h (before yeast)): 37.00 °C
- Rectal temperature (rats [4]; 80 mg/kg oral, 0 h (4 h after yeast, before treatment)): 38.14 °C
- Rectal temperature (rats [4]; 80 mg/kg oral, 0.5 h): 37.16 °C
- Rectal temperature (rats [4]; 80 mg/kg oral, 1 h): 37.47 °C
- Rectal temperature (rats [4]; 80 mg/kg oral, 1.5 h): 37.54 °C
- Rectal temperature (rats [4]; 80 mg/kg oral, 2 h): 37.57 °C
- Rectal temperature (rats [4]; 80 mg/kg oral, 2.5 h): 37.47 °C
- Rectal temperature (rats [4]; 80 mg/kg oral, 3 h): 37.47 °C
- Rectal temperature (rats [4]; 80 mg/kg oral, 19 h): 36.75 °C
- Rectal temperature (rats [4]; 80 mg/kg oral, -4 h (before yeast)): 37.06 °C
- Rectal temperature (rats [4]; 160 mg/kg oral, 0 h (4 h after yeast, before treatment)): 38.06 °C
- Rectal temperature (rats [4]; 160 mg/kg oral, 0.5 h): 37.14 °C
- Rectal temperature (rats [4]; 160 mg/kg oral, 1 h): 37.20 °C
- Rectal temperature (rats [4]; 160 mg/kg oral, 1.5 h): 37.62 °C
- Rectal temperature (rats [4]; 160 mg/kg oral, 2 h): 37.67 °C
- Rectal temperature (rats [4]; 160 mg/kg oral, 2.5 h): 37.58 °C
- Rectal temperature (rats [4]; 160 mg/kg oral, 3 h): 37.76 °C
- Rectal temperature (rats [4]; 160 mg/kg oral, 19 h): 37.86 °C
- Rectal temperature (rats [4]; 160 mg/kg oral, -4 h (before yeast)): 36.46 °C
- Rectal temperature (normal rats) (rats [5]; 40 mg/kg oral, 0.5 h): 35.96 °C
- Rectal temperature (normal rats) (rats [5]; 40 mg/kg oral, 1 h): 36.28 °C
- Rectal temperature (normal rats) (rats [5]; 40 mg/kg oral, 1.5 h): 36.34 °C
- Rectal temperature (normal rats) (rats [5]; 40 mg/kg oral, 2 h): 36.54 °C
- Rectal temperature (normal rats) (rats [5]; 40 mg/kg oral, -0.5 h (before administration)): 36.20 °C
- Rectal temperature (normal rats) (rats [5]; 40 mg/kg oral, -1 h (before administration)): 36.62 °C
- Rectal temperature (normal rats) (rats [5]; 40 mg/kg oral, -1.5 h (before administration)): 36.81 °C
- Rectal temperature (normal rats) (rats [5]; 80 mg/kg oral, 0.5 h): 36.25 °C
- Rectal temperature (normal rats) (rats [5]; 80 mg/kg oral, 1 h): 36.12 °C
- Rectal temperature (normal rats) (rats [5]; 80 mg/kg oral, 1.5 h): 36.14 °C
- Rectal temperature (normal rats) (rats [5]; 80 mg/kg oral, 2 h): 36.15 °C
- Rectal temperature (normal rats) (rats [5]; 80 mg/kg oral, -0.5 h (before administration)): 36.33 °C
- Rectal temperature (normal rats) (rats [5]; 80 mg/kg oral, -1 h (before administration)): 36.42 °C
- Rectal temperature (normal rats) (rats [5]; 80 mg/kg oral, -1.5 h (before administration)): 36.75 °C
- Rectal temperature (normal rats) (rats [5]; 160 mg/kg oral, 0.5 h): 35.71 °C
- Rectal temperature (normal rats) (rats [5]; 160 mg/kg oral, 1 h): 35.85 °C
- Rectal temperature (normal rats) (rats [5]; 160 mg/kg oral, 1.5 h): 35.91 °C
- Rectal temperature (normal rats) (rats [5]; 160 mg/kg oral, 2 h): 35.86 °C
- Rectal temperature (normal rats) (rats [5]; 160 mg/kg oral, -0.5 h (before administration)): 36.22 °C
- Rectal temperature (normal rats) (rats [5]; 160 mg/kg oral, -1 h (before administration)): 36.32 °C
- Rectal temperature (normal rats) (rats [5]; 160 mg/kg oral, -1.5 h (before administration)): 37.01 °C
- Reaction time (mice; 50 mg/kg oral, 0 (before administration)): 15.40 ± 2.76 s
- Reaction time (mice; 50 mg/kg oral, 30 min): 16.70 ± 3.86 s
- Reaction time (mice; 100 mg/kg oral, 0 (before administration)): 12.90 ± 3.21 s
- Reaction time (mice; 200 mg/kg oral, 0 (before administration)): 14.40 ± 2.95 s
- analgesic activity in the hot plate test compared with bumadizon calcium (mice; summary, Table III): higher, begins earlier and lasts longer than that of bumadizon calcium
